The results in this text go back to patent US20250268854A1, “2-AMINO-5,5-DIMETHYLHEXANOIC ACID DERIVATIVES AS SORTILIN MODULATORS FOR USE IN THE TREATMENT OF DISEASE OF THE CENTRAL NERVOUS SYSTEM” (c/o Vesper Bio ApS, priority 2021, published 2025).

For assay [1], the target named is human Sortilin (Homo sapiens (Human), UniProt Q99523). Briefly: Creoptix (GCI) binding kinetics, human Sortilin. The following applies: screened at 1 μM. The procedure:
A protein, bound to a surface, is bathed in a solution containing potential ligands giving rise to binding kinetics to generate Kon and Koff rates, as well as a Kd.
All buffers described were filtered using a 0.2 μm filter (Product number: 10300461, Nalgene) and degassed for 15 minutes prior to use.
A flow cell temperature of 25 degrees Celsius was used throughout the experiment.
A 4PCH chip was conditioned across all flow cells using 0.2× concentration running buffer (running buffer composition: 1×HBS-N, pH 7.4, 3.4 mM EDTA, 1% DMSO) using pre-set conditioning wizard (WAVE control software) injecting: 0.1 M borate, 1 M NaCl (pH 9) followed by three start-up injections of 0.2× running buffer.
A buffer exchange was performed and 1× running buffer (1×HBS-N, pH 7.4, 3.4 mM EDTA, 1% DMSO) used during the immobilisation procedure:
An initial injection of EDC/NHS (mixed in 1:1 ratio) was performed across all 4-flow cells to activate the surface for amine coupling of ligands.
Recombinant Sortilin aliquots were thawed quickly by hand and centrifuged at 13,300 rpm for 10 minutes. A 10 μg/ml protein solution was then made in pH 5.0 acetate and injected once for 20 minutes over flow-cells 2, 3 and 4 for human, human (flow cells 2 & 3), and mouse Sortilin respectively followed by a 60 second dissociation period.
A final 7-minute passivation injection of 50 mM tris was used across all flow cells.
A flow rate of 10 μl/min was used for all conditioning and immobilisation cycles.
Compounds were screened at 1 μM using the in-built ‘intermediate binders’ settings: 100 ul/min, 45 s baseline, 25 s association, 300 s dissociation, with blanks every 5th sample and a DMSO correction (1.5% DMSO at the start and end of the experiment as well as every 20 cycles. An acquisition rate of 10 Hz was used throughout the experiment.
Compounds were screened at a final assay concentration of 1 μM and a final DMSO concentration was 1%. To achieve this, compounds were diluted in DMSO from 10 mM stocks to 100 μM (100×final assay concentration) then diluted 1:100 in running buffer which contained no DMSO to establish a final assay concentration of compound of 1 μM and a final DMSO concentration of 1% [DMSO].
Compounds and DMSO were mixed by plate shaking at 1000 rpm for 60 seconds using a Bioshake instrument.
A flow rate of 100 μl/min was used throughout the experiment.
Data was evaluated using the RAPID kinetic analysis tool in the GCI WAVE_control software with data fitted using a standard 1:1 kinetic BioModel.

Assay [2] deals with h-Sortilin (Homo sapiens (Human), UniProt Q99523). Briefly: Neurotensin (NTS) scintillation proximity assay (SPA): displacement of [3H]-neurotensin binding. To be noted: 150 nM 6his-Sortilin, 5 nM [3H]-Neurotensin, average of at least 2 determinations. The procedure:
The exemplified compounds of the invention were tested in a Neurotensin (NTS) scintillation proximity assay (SPA). NTS, which is a 13 amino acid neuropeptide, is a sortilin ligand. The IC50 is a measure of the amount of the compound required to inhibit the binding of NTS to sortilin by 50%. […] Compound affinity was determined by measuring the displacement of [^3H]-neurotensin binding to h-Sortilin in SPA format. […] IC50 values were calculated by nonlinear regression using the sigmoid concentration-response (variable slope) using CDD Vault software. All values reported are average of at least 2 determinations.

Where a name gives a salt, the structure may show the parent alone.

Sequence of h-Sortilin (Q99523 78-831): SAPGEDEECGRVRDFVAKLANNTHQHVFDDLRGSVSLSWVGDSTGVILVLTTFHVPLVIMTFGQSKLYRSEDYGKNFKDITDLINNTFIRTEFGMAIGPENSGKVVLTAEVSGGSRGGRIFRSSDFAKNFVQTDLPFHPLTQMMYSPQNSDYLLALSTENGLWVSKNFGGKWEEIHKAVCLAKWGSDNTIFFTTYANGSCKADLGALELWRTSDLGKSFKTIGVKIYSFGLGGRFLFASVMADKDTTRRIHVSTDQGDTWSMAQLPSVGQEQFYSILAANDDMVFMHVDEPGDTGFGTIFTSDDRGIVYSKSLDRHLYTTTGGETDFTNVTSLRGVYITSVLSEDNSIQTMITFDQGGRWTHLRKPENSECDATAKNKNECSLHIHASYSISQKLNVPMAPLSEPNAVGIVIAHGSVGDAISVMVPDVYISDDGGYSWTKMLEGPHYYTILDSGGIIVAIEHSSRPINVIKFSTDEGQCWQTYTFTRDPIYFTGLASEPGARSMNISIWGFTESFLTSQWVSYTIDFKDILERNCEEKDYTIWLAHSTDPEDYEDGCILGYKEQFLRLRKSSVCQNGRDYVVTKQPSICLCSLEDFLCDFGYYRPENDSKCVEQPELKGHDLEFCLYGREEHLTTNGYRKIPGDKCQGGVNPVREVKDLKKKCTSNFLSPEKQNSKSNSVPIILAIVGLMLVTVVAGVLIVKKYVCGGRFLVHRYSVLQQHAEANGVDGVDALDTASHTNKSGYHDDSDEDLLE
Sequence of human Sortilin (Q99523 78-755): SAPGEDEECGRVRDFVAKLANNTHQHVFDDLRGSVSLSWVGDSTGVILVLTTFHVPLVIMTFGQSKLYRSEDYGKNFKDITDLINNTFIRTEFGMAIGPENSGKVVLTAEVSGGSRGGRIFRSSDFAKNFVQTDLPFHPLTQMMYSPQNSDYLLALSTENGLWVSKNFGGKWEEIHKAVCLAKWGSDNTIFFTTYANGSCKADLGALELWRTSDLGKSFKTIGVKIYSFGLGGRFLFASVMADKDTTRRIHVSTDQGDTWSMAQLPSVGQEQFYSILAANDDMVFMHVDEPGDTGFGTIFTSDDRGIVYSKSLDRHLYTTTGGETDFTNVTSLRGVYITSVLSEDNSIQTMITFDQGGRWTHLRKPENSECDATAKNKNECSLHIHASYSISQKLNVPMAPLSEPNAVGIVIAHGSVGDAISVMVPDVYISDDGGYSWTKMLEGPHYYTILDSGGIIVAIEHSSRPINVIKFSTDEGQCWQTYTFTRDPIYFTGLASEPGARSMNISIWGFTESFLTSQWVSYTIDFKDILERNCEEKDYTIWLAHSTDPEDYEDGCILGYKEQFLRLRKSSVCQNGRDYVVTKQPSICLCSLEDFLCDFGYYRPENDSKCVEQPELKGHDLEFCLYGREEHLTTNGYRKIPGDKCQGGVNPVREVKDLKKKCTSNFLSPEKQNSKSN

Turning to `CC(C)(C)CC[C@H](NCc1ccccc1)C(=O)O` [Example 3, (S)-2-(benzylamino)-5,5-dimethylhexanoic acid hydrochloride], the dissociation constant Kd in assay [1] (HCl salt) worked out at 902 nM. This compound had a half-inhibitory concentration (IC50) in assay [2] of 766 nM.
For the compound `COc1ccccc1CN[C@@H](CCC(C)(C)C)C(=O)O` [Example 9, (S)-2-((2-methoxybenzyl)amino)-5,5-dimethylhexanoic acid hydrochloride], in assay [1] (HCl salt), the Kd is 8450 nM. Moreover, in assay [2], the concentration for half-maximal inhibition (IC50) stood at 630 nM.
The compound `COc1cccc([C@H](N[C@@H](CCC(C)(C)C)C(=O)O)C(F)F)c1` [Example 21, (2S)-2-{[(1S)-2,2-difluoro-1-(3-methoxyphenyl)ethyl]amino}-5,5-dimethylhexanoic acid] gave an equilibrium dissociation constant (Kd) in assay [1] (Free acid) of 284 nM. This compound displayed an IC50 in assay [2] of 270 nM.
Take `COc1cccc([C@@H](N[C@@H](CCC(C)(C)C)C(=O)O)C(F)F)c1` [Example 22, (2S)-2-{[(1R)-2,2-difluoro-1-(3-methoxyphenyl)ethyl]amino}-5,5-dimethylhexanoic acid]: the Kd in assay [1] (Free acid) came out at 5960 nM. In addition, in assay [2], the IC50 was 260 nM.
On to `COc1cccc([C@@H](N[C@@H](CCC(C)(C)C)C(=O)O)C(F)(F)F)c1` [Example 23, (2S)-5,5-dimethyl-2-{[(1R)-2,2,2-trifluoro-1-(3-methoxyphenyl)ethyl]amino}hexanoic acid], for which, in assay [1] (Free acid), the affinity, expressed as Kd, was 4020 nM. In assay [2], the IC50 was 390 nM.
In assay [1] (Free acid), `COc1cccc([C@H](N[C@@H](CCC(C)(C)C)C(=O)O)C(F)(F)F)c1` [Example 24, (2S)-5,5-dimethyl-2-{[(1S)-2,2,2-trifluoro-1-(3-methoxyphenyl)ethyl]amino}hexanoic acid] yielded a Kd of 230 nM.
The compound `COc1ccc(OC)c(CN[C@@H](CCC(C)(C)C)C(=O)O)c1` [Example 28, (2S)-2-{[(2,5-dimethoxyphenyl)methyl]amino}-5,5-dimethylhexanoic acid] displayed a Kd in assay [1] (Free acid) of 1020 nM. The IC50 in assay [2] is 2220 nM.
The compound `COc1cc(F)cc(CN[C@@H](CCC(C)(C)C)C(=O)O)c1` [Example 29, (2S)-2-{[(3-fluoro-5-methoxyphenyl)methyl]amino}-5,5-dimethylhexanoic acid] returned a dissociation constant (Kd) in assay [1] (Free acid) of 571 nM. In assay [2], this compound registered an IC50 of 550 nM.
In the case of `COc1cc(Cl)cc(CN[C@@H](CCC(C)(C)C)C(=O)O)c1` [Example 30, (2S)-2-{[(3-chloro-5-methoxyphenyl)methyl]amino}-5,5-dimethylhexanoic acid], in assay [1] (Free acid), binding was put at a Kd of 450 nM. The IC50 in assay [2] amounted to 580 nM.
With `COc1cc(Br)cc(CN[C@@H](CCC(C)(C)C)C(=O)O)c1` [Example 31, (2S)-2-{[(3-bromo-5-methoxyphenyl)methyl]amino}-5,5-dimethylhexanoic acid], the Kd in assay [1] (Free acid) was 432 nM. The compound also had an IC50 in assay [2] of 520 nM.
Taken in the same sequence, the figures for `COc1cc(CN[C@@H](CCC(C)(C)C)C(=O)O)ccc1C` [Example 33, (2S)-2-{[(3-methoxy-4-methylphenyl)methyl]amino}-5,5-dimethylhexanoic acid] were 242 nM and 400 nM.
In turn, `COc1ccc(CN[C@@H](CCC(C)(C)C)C(=O)O)cc1OC` [Example 38, (2S)-2-{[(3,4-dimethoxyphenyl)methyl]amino}-5,5-dimethylhexanoic acid] returned a Kd in assay [1] (Free acid) of 747 nM. The compound further registered an IC50 in assay [2] of 1360 nM.
`CC(C)(C)CC[C@H](NCc1ccc2c(c1)CCCO2)C(=O)O` [Example 40, (2S)-2-{[(3,4-dihydro-2H-1-benzopyran-6-yl)methyl]amino}-5,5-dimethylhexanoic acid]: the dissociation constant (Kd) in assay [1] (Free acid) was found to be 101 nM. The compound also displayed an IC50 in assay [2] of 470 nM.
In assay [2], `Cc1cccc(CN[C@@H](CCC(C)(C)C)C(=O)O)c1C` [Example 83, (2S)-2-{[(2,3-dimethylphenyl)methyl]amino}-5,5-dimethylhexanoic acid] yielded an IC50 of 700 nM.
`COc1ccc2cc(CN[C@@H](CCC(C)(C)C)C(=O)O)ccc2c1` [Example 85]: the IC50 in assay [2] worked out at 1050 nM.
`COc1cncc(CN[C@@H](CCC(C)(C)C)C(=O)O)c1` [Example 86] had an IC50 in assay [2] of 790 nM.
On the same count and under the same terms, the figure for `COc1cc(CN[C@@H](CCC(C)(C)C)C(=O)O)ccn1` [Example 87] is 530 nM; for `CC(C)(C)CC[C@H](NCc1ccnc(Cl)c1F)C(=O)O` [Example 89, (2S)-2-{[(2-chloro-3-fluoropyridin-4-yl)methyl]amino}-5,5-dimethylhexanoic acid] it is 790 nM; for `COc1ccc(CN[C@@H](CCC(C)(C)C)C(=O)O)cc1O` [Example 91, (2S)-2-{[(3-hydroxy-4-methoxyphenyl)methyl]amino}-5,5-dimethylhexanoic acid] it is 390 nM.
On the same count and under the same terms, the figure for `Cc1cnccc1CN[C@@H](CCC(C)(C)C)C(=O)O` [Example 93] is 1630 nM; for `Cc1cncc(CN[C@@H](CCC(C)(C)C)C(=O)O)c1` [Example 95] it is 690 nM.
The same measure, in the same setting: as for `Cc1nc2cc(CN[C@@H](CCC(C)(C)C)C(=O)O)ccc2s1` [Example 100, (2S)-5,5-dimethyl-2-{[(2-methyl-1,3-benzothiazol-5-yl)methyl]amino}hexanoic acid], the figure is 380 nM; as for `Cn1ccc2cc(CN[C@@H](CCC(C)(C)C)C(=O)O)cnc21` [Example 106, (2S)-5,5-dimethyl-2-[({1-methyl-1H-pyrrolo[2,3-b]pyridin-5-yl}methyl)amino]hexanoic acid], 590 nM.
Compound `COc1ccc([C@H](C)N[C@@H](CCC(C)(C)C)C(=O)O)cc1OC` [Example 108, (S)-2-(((S)-1-(3,4-dimethoxyphenyl)ethyl)amino)-5,5-dimethylhexanoic acid] registered an IC50 in assay [2] of 370 nM.
In turn, `Cn1cnc2cc(CN[C@@H](CCC(C)(C)C)C(=O)O)ccc21` [Example 110, (2S)-5,5-dimethyl-2-{[(1-methyl-1H-1,3-benzodiazol-5-yl)methyl]amino}hexanoic acid] had a 50% inhibitory concentration (IC50) in assay [2] of 460 nM.
For `CC(C)(C)CC[C@H](NCc1ccc2occc2c1)C(=O)O` [Example 117, (2S)-2-{[(1-benzofuran-5-yl)methyl]amino}-5,5-dimethylhexanoic acid], the IC50 in assay [2] was 430 nM.
Consider `Cc1cc(CN[C@@H](CCC(C)(C)C)C(=O)O)ccn1` [Example 132], for which, in assay [2], the IC50 was 880 nM.
Turning to `COc1ccc(CN[C@@H](CCC(C)(C)C)C(=O)O)cc1` [Example 133, (2S)-2-{[(4-methoxyphenyl)methyl]amino}-5,5-dimethylhexanoic acid], the half-maximal inhibitory concentration (IC50) in assay [2] was 820 nM.
`CC(C)(C)CC[C@H](NCc1cccc2[nH]ncc12)C(=O)O` [Example 134, (2S)-2-{[(2H-indazol-4-yl)methyl]amino}-5,5-dimethylhexanoic acid] displayed an IC50 in assay [2] of 1320 nM.
Take `CCn1ccc2c(CN[C@@H](CCC(C)(C)C)C(=O)O)cccc21` [Example 135, (2S)-2-{[(1-ethyl-1H-indol-4-yl)methyl]amino}-5,5-dimethylhexanoic acid]: in assay [2], the concentration for half-maximal inhibition (IC50) was 420 nM.
On the same count and under the same terms, the figure for `Cn1cnc2c(CN[C@@H](CCC(C)(C)C)C(=O)O)cccc21` [Example 138, (S)-5,5-dimethyl-2-(((1-methyl-1H-benzo[d]imidazol-4-yl)methyl)amino)hexanoic acid, Mesylic acid] is 740 nM; for `CC(=O)c1cccc(CN[C@@H](CCC(C)(C)C)C(=O)O)c1` [Example 139, (2S)-2-{[(3-acetylphenyl)methyl]amino}-5,5-dimethylhexanoic acid] it is 570 nM.
Consider `CC(N[C@@H](CCC(C)(C)C)C(=O)O)c1cncnc1` (stereo partly drawn) [Example 141, (2S)-5,5-dimethyl-2-((1-(pyrimidin-5-yl)ethyl)amino)hexanoic acid, HCl], for which the IC50 in assay [2] (HCl) came to 640 nM.
The same measure, in the same setting: as for `CC(N[C@@H](CCC(C)(C)C)C(=O)O)c1cncnc1` (stereo partly drawn) [Example 143, (2S)-5,5-dimethyl-2-((1-(pyrimidin-5-yl)ethyl)amino)hexanoic acid, HCl], the figure is 890 nM.
